Test results reported in paper PMC7248880, “Preclinical Incorporation Dosimetry of [^18F]FACH—A Novel ^18F-Labeled MCT1/MCT4 Lactate Transporter Inhibitor for Imaging Cancer Metabolism with PET” (Molecules, 2020).

Experiment: Preclinical incorporation dosimetry: whole-body PET/CT in piglets, scaled to human, OLINDA 2.1, ICRP103
Assay type: in vivo, juvenile pigs
Description: Three piglets (age: ~6 weeks, weight: ~13–15 kg) were fasted on the day of imaging and received an intranuscular. injection of 1 mL azaperone and 4 mL ketamine to introduce anesthesia. […] During narcosis, the animals maintained spontaneous respiration and no mandatory ventilation was applied. The subjects were sequentially imaged after an iv injection (contralateral ear vein) of 156 ± 54 MBq [^18F]FACH (0.63 ± 0.49 µg) in a PET/CT system (Biograph16, SIEMENS, Erlangen, Germany). The piglets were positioned prone with legs alongside the body on a custom-made plastic trough including a piglet head-holder (Figure 5). The PET acquisition was divided into a sequential (4 × 9 min, 3 × 12 min) and a static part (1 × 24 min, 1 × 30 min, 1 × 36 min), each of which was preceded by a low-dose CT to acquire structural data for attenuation correction (AC) and anatomical orientation (Figure 6). Post mortem, the urine was collected by bladder punctuation, weighted, and divided into three 1 mL samples for activity measurements in a gamma-counter (Packard Cobra II 5003 Auto Gamma Counting System, GMI, Ramsey, MN, USA).
PET data reconstruction was done using low-dose CT attenuation correction (AC) and an iterative OSEM algorithm with 4 iterations and 8 subsets. As the PET/CT system is in daily clinical use, it is periodically subjected to detector normalization and activity calibration. Furthermore, all peripheral activity-measuring devices to be used for the investigation (dose calibrator, gamma counter) are cross-calibrated in terms of timing and a radioactivity adjustment.
The image data were analyzed with ROVER (ABX, Radeberg, Germany; v. 3.0.46h). The organs were identified and manually delineated using 3D volumes of interest (VOI). The CT data were used for anatomical orientation and for image registration with the PET data. Relevant source organs like brain, gall bladder, large intestine, small intestine, stomach, heart, kidneys, liver, lungs, pancreas, red marrow (backbone, pelvis, sternum), spleen, thyroid, testes, skeleton (bone), and the urinary bladder were delineated and the time–activity data transformed into percentage of injected dose (%IDorgan) with Equation (2). (2) %IDorgant=Aorgant×cscant/A0t [%] where Aorgant is the activity in the organ at the time t; cscant is a calibration factor representing the theoretical body activity (derived from a whole body mask of a volume that equals the body dimentions of the animal) decay corrected to t and divided by the imaged body activity in each image frame at the time t, and A0t is the injected activity decay corrected to t0.
The dose calculation has been described by our group in detail before. Briefly, due to differences in weight, size, and metabolic rates between the animal species and the human volunteers, it is necessary to map the preclinical extracted biodistribution data to human circumstances. Thus, the animal biokinetic data (time scale and %ID values) were adapted to the human circumstances according to [22] to fit the human weight, size, and metabolic rates (Equations (3) and (4)). (3) thuman=tanimal[mhuman/manimal]^0.25 (4) [%ID]/organhuman=[%ID]/ganimal×mTBanimal[g]/mTBhuman[g]×morganhuman[g]
The TIACs were estimated by exponential fitting and the dosimetry estimation was performed using OLINDA/EXM software (v. 2.1). Finally, organ doses (OD) were estimated and multiplied by tissue weighting factors as published in ICRP103 [20].

SMILES: CCCN(CCC[18F])c1ccc(/C=C(\C#N)C(=O)O)c(OC)c1 [[^18F]FACH, (E)-2-cyano-3-{4-[(3-[^18F]fluoropropyl)(propyl)amino]-2-methoxyphenyl}acrylic acid]
- Effective dose (FACHpig1): 1.25E-02 mSv/MBq
- Effective dose contribution HT wT, Adrenals (FACHpig1): 1.26E-04 mSv/MBq
- Effective dose contribution HT wT, Brain (FACHpig1): 5.61E-05 mSv/MBq
- Effective dose contribution HT wT, Esophagus (FACHpig1): 4.16E-04 mSv/MBq
- Effective dose contribution HT wT, Eyes (FACHpig1): 0.00E+00 mSv/MBq
- Effective dose contribution HT wT, Gallbladder Wall (FACHpig1): 1.12E-04 mSv/MBq
- Effective dose contribution HT wT, Heart Wall (FACHpig1): 9.47E-05 mSv/MBq
- Effective dose contribution HT wT, Kidneys (FACHpig1): 2.47E-04 mSv/MBq
- Effective dose contribution HT wT, Left colon (FACHpig1): 7.77E-04 mSv/MBq
- Effective dose contribution HT wT, Liver (FACHpig1): 3.22E-04 mSv/MBq
- Effective dose contribution HT wT, Lungs (FACHpig1): 9.67E-04 mSv/MBq
- Effective dose contribution HT wT, Osteogenic Cells (FACHpig1): 2.00E-04 mSv/MBq
- Effective dose contribution HT wT, Pancreas (FACHpig1): 5.61E-04 mSv/MBq
- Effective dose contribution HT wT, Prostate (FACHpig1): 7.36E-05 mSv/MBq
- Effective dose contribution HT wT, Rectum (FACHpig1): 3.44E-04 mSv/MBq
- Effective dose contribution HT wT, Red Marrow (FACHpig1): 1.58E-03 mSv/MBq
- Effective dose contribution HT wT, Right colon (FACHpig1): 9.34E-04 mSv/MBq
- Effective dose contribution HT wT, Salivary Glands (FACHpig1): 1.03E-04 mSv/MBq
- Effective dose contribution HT wT, Small Intestine (FACHpig1): 1.74E-04 mSv/MBq
- Effective dose contribution HT wT, Spleen (FACHpig1): 9.48E-05 mSv/MBq
- Effective dose contribution HT wT, Stomach Wall (FACHpig1): 1.71E-03 mSv/MBq
- Effective dose contribution HT wT, Testes (FACHpig1): 4.40E-04 mSv/MBq
- Effective dose contribution HT wT, Thymus (FACHpig1): 9.49E-05 mSv/MBq
- Effective dose contribution HT wT, Thyroid (FACHpig1): 3.21E-04 mSv/MBq
- Effective dose contribution HT wT, Total Body (FACHpig1): 0.00E+00 mSv/MBq
- Effective dose contribution HT wT, Urinary Bladder Wall (FACHpig1): 2.74E-03 mSv/MBq
- Organ equivalent dose HT, Adrenals (FACHpig1): 1.36E-02 mSv/MBq
- Organ equivalent dose HT, Brain (FACHpig1): 5.61E-03 mSv/MBq
- Organ equivalent dose HT, Esophagus (FACHpig1): 1.04E-02 mSv/MBq
- Organ equivalent dose HT, Eyes (FACHpig1): 8.81E-03 mSv/MBq
- Organ equivalent dose HT, Gallbladder Wall (FACHpig1): 1.22E-02 mSv/MBq
- Organ equivalent dose HT, Heart Wall (FACHpig1): 1.03E-02 mSv/MBq
- Organ equivalent dose HT, Kidneys (FACHpig1): 2.67E-02 mSv/MBq
- Organ equivalent dose HT, Left colon (FACHpig1): 1.60E-02 mSv/MBq
- Organ equivalent dose HT, Liver (FACHpig1): 8.05E-03 mSv/MBq
- Organ equivalent dose HT, Lungs (FACHpig1): 8.05E-03 mSv/MBq
- Organ equivalent dose HT, Osteogenic Cells (FACHpig1): 2.00E-02 mSv/MBq
- Organ equivalent dose HT, Pancreas (FACHpig1): 6.08E-02 mSv/MBq
- Organ equivalent dose HT, Prostate (FACHpig1): 1.59E-02 mSv/MBq
- Organ equivalent dose HT, Rectum (FACHpig1): 1.50E-02 mSv/MBq
- Organ equivalent dose HT, Red Marrow (FACHpig1): 1.32E-02 mSv/MBq
- Organ equivalent dose HT, Right colon (FACHpig1): 1.93E-02 mSv/MBq
- Organ equivalent dose HT, Salivary Glands (FACHpig1): 1.03E-02 mSv/MBq
- Organ equivalent dose HT, Small Intestine (FACHpig1): 1.88E-02 mSv/MBq
- Organ equivalent dose HT, Spleen (FACHpig1): 1.03E-02 mSv/MBq
- Organ equivalent dose HT, Stomach Wall (FACHpig1): 1.43E-02 mSv/MBq
- Organ equivalent dose HT, Testes (FACHpig1): 1.10E-02 mSv/MBq
- Organ equivalent dose HT, Thymus (FACHpig1): 1.03E-02 mSv/MBq
- Organ equivalent dose HT, Thyroid (FACHpig1): 8.02E-03 mSv/MBq
- Organ equivalent dose HT, Total Body (FACHpig1): 1.15E-02 mSv/MBq
- Organ equivalent dose HT, Urinary Bladder Wall (FACHpig1): 6.86E-02 mSv/MBq
- Effective dose (FACHpig2): 1.19E-02 mSv/MBq
- Effective dose contribution HT wT, Adrenals (FACHpig2): 1.33E-04 mSv/MBq
- Effective dose contribution HT wT, Brain (FACHpig2): 4.35E-05 mSv/MBq
- Effective dose contribution HT wT, Esophagus (FACHpig2): 3.43E-04 mSv/MBq
- Effective dose contribution HT wT, Eyes (FACHpig2): 0.00E+00 mSv/MBq
- Effective dose contribution HT wT, Gallbladder Wall (FACHpig2): 4.78E-04 mSv/MBq
- Effective dose contribution HT wT, Heart Wall (FACHpig2): 8.50E-05 mSv/MBq
- Effective dose contribution HT wT, Kidneys (FACHpig2): 2.20E-04 mSv/MBq
- Effective dose contribution HT wT, Left colon (FACHpig2): 7.07E-04 mSv/MBq
- Effective dose contribution HT wT, Liver (FACHpig2): 1.11E-03 mSv/MBq
- Effective dose contribution HT wT, Lungs (FACHpig2): 9.55E-04 mSv/MBq
- Effective dose contribution HT wT, Osteogenic Cells (FACHpig2): 2.34E-04 mSv/MBq
- Effective dose contribution HT wT, Pancreas (FACHpig2): 2.11E-04 mSv/MBq
- Effective dose contribution HT wT, Prostate (FACHpig2): 4.73E-05 mSv/MBq
- Effective dose contribution HT wT, Rectum (FACHpig2): 3.17E-04 mSv/MBq
- Effective dose contribution HT wT, Red Marrow (FACHpig2): 1.97E-03 mSv/MBq
- Effective dose contribution HT wT, Right colon (FACHpig2): 1.58E-03 mSv/MBq
- Effective dose contribution HT wT, Salivary Glands (FACHpig2): 7.07E-05 mSv/MBq
- Effective dose contribution HT wT, Small Intestine (FACHpig2): 2.47E-04 mSv/MBq
- Effective dose contribution HT wT, Spleen (FACHpig2): 8.20E-05 mSv/MBq
- Effective dose contribution HT wT, Stomach Wall (FACHpig2): 1.22E-03 mSv/MBq
- Effective dose contribution HT wT, Testes (FACHpig2): 2.83E-04 mSv/MBq
- Effective dose contribution HT wT, Thymus (FACHpig2): 7.07E-05 mSv/MBq
- Effective dose contribution HT wT, Thyroid (FACHpig2): 2.52E-04 mSv/MBq
- Effective dose contribution HT wT, Total Body (FACHpig2): 0.00E+00 mSv/MBq
- Effective dose contribution HT wT, Urinary Bladder Wall (FACHpig2): 1.25E-03 mSv/MBq
- Organ equivalent dose HT, Adrenals (FACHpig2): 1.44E-02 mSv/MBq
- Organ equivalent dose HT, Brain (FACHpig2): 4.35E-03 mSv/MBq
- Organ equivalent dose HT, Esophagus (FACHpig2): 8.58E-03 mSv/MBq
- Organ equivalent dose HT, Eyes (FACHpig2): 6.29E-03 mSv/MBq
- Organ equivalent dose HT, Gallbladder Wall (FACHpig2): 5.18E-02 mSv/MBq
- Organ equivalent dose HT, Heart Wall (FACHpig2): 9.21E-03 mSv/MBq
- Organ equivalent dose HT, Kidneys (FACHpig2): 2.38E-02 mSv/MBq
- Organ equivalent dose HT, Left colon (FACHpig2): 1.46E-02 mSv/MBq
- Organ equivalent dose HT, Liver (FACHpig2): 2.77E-02 mSv/MBq
- Organ equivalent dose HT, Lungs (FACHpig2): 7.96E-03 mSv/MBq
- Organ equivalent dose HT, Osteogenic Cells (FACHpig2): 2.34E-02 mSv/MBq
- Organ equivalent dose HT, Pancreas (FACHpig2): 2.28E-02 mSv/MBq
- Organ equivalent dose HT, Prostate (FACHpig2): 1.02E-02 mSv/MBq
- Organ equivalent dose HT, Rectum (FACHpig2): 1.38E-02 mSv/MBq
- Organ equivalent dose HT, Red Marrow (FACHpig2): 1.64E-02 mSv/MBq
- Organ equivalent dose HT, Right colon (FACHpig2): 3.25E-02 mSv/MBq
- Organ equivalent dose HT, Salivary Glands (FACHpig2): 7.07E-03 mSv/MBq
- Organ equivalent dose HT, Small Intestine (FACHpig2): 2.67E-02 mSv/MBq
- Organ equivalent dose HT, Spleen (FACHpig2): 8.88E-03 mSv/MBq
- Organ equivalent dose HT, Stomach Wall (FACHpig2): 1.01E-02 mSv/MBq
- Organ equivalent dose HT, Testes (FACHpig2): 7.08E-03 mSv/MBq
- Organ equivalent dose HT, Thymus (FACHpig2): 7.66E-03 mSv/MBq
- Organ equivalent dose HT, Thyroid (FACHpig2): 6.30E-03 mSv/MBq
- Organ equivalent dose HT, Total Body (FACHpig2): 9.14E-03 mSv/MBq
- Organ equivalent dose HT, Urinary Bladder Wall (FACHpig2): 3.12E-02 mSv/MBq
- Effective dose (FACHpig3): 1.29E-02 mSv/MBq
- Effective dose contribution HT wT, Adrenals (FACHpig3): 1.35E-04 mSv/MBq
- Effective dose contribution HT wT, Brain (FACHpig3): 4.10E-05 mSv/MBq
- Effective dose contribution HT wT, Esophagus (FACHpig3): 3.24E-04 mSv/MBq
- Effective dose contribution HT wT, Eyes (FACHpig3): 0.00E+00 mSv/MBq
- Effective dose contribution HT wT, Gallbladder Wall (FACHpig3): 8.05E-04 mSv/MBq
